We go through 4 compounds from publication PMC4549624 (Scientific Reports, 2015).

For one experiment, the system named is KCNQ1. The settings on record: cited from earlier work.
The next experiment deals with KCNE1-R32D (human) (UniProt P15382).
The target of the next experiment is KCNE1 (human) (UniProt P15382).

Like-named read-outs stand apart in the source and are kept apart here. Some results are limits rather than exact numbers.

Consider `O=C(Nc1cc(C(F)(F)F)ccc1O)Nc1cc(C(F)(F)F)ccc1O` [NS1643], for which the “effect on KCNQ1” value with KCNQ1 (binds to KCNQ1, in words) was “enhance the channel conductance”. SSD609 (peptide) registered a current of KCNQ1/KCNE1-R32D left under SSD609 in transfected CHO cells, whole-cell patch clamp with KCNE1-R32D (human) of under 10%. The compound also registered a current of wild-type KCNQ1/KCNE1 left under SSD609 in transfected CHO cells, whole-cell patch clamp (reference of the R32D mutant) with KCNE1 (human) of 30%. On to `COc1ccc(-c2csc(NC(=O)[C@H]3CCCCN3S(=O)(=O)c3ccc(C)cc3)n2)cc1` [ML277], for which the “effect on KCNQ1” value with KCNQ1 (binds to side pocket in KCNQ1, especially KCNE1-free side pocket, in words) is “enhance the amplitude of the KCNQ1 current”.

Consider `CCS(=O)(=O)N(C)[C@H]1c2cc(C#N)ccc2OC(C)(C)[C@@H]1O` (racemic) [chromanol 293B], for which the “effect on KCNQ1” value in the experiment on KCNQ1 is “inhibit the channel”.
